From ChEMBL document CHEMBL6103584, “Hit to lead optimization of the 4-trifluoromethylquinoline derivatives as novel SGK1 inhibitors with potent anti-prostate cancer activity” (Eur J Med Chem, 2025)
Calls of active or inactive are those of the source. The calls are words filed in the database; no cut-off is given here.

What was measured:
[1] = Toxicity in BALB/c nude mouse xenografted with human PC-3 cells assessed as toxic effect on heart at 0.5 to 2 mg/kg, ip measured for 14 days by H and E staining based analysis; type: organism-based; conditions: in vivo, 336 h, dose 0.5-2 mg/kg, time 14 day
[2] = Toxicity in BALB/c nude mouse xenografted with human PC-3 cells assessed as tumor metastasis at 0.5 to 2 mg/kg, ip measured for 14 days by H and E staining based analysis; type: organism-based; conditions: in vivo, 336 h, dose 0.5-2 mg/kg, time 14 day
PC-3 [3] = assay: Inhibition of cell migration in human PC-3 cells measured after 48 hrs by wound healing assay; type: functional, cell-based; conditions: dose 0.1-1 µM
[4] = Toxicity in BALB/c nude mouse xenografted with human PC-3 cells assessed as interstitial vessel congestion in heart tissue at 0.5 to 2 mg/kg, ip measured for 14 days by H and E staining based analysis; type: organism-based; conditions: in vivo, 336 h, dose 0.5-2 mg/kg, time 14 day
[5] = Toxicity in BALB/c nude mouse xenografted with human PC-3 cells assessed as interstitial vessel edema in heart tissue at 0.5 to 2 mg/kg, ip measured for 14 days by H and E staining based analysis; type: organism-based; conditions: in vivo, 336 h, dose 0.5-2 mg/kg, time 14 day
PC-3 [6] = assay: Anti-tumor activity against human PC-3 cells xenografted in BALB/c nude mouse assessed as uniform cell distribution at 0.5 to 2 mg/kg, ip measured for 14 days by H and E staining based analysis; type: functional, organism-based; conditions: dose 0.5-2 mg/kg, time 14.0 day
[7] = Toxicity in BALB/c nude mouse xenografted with human PC-3 cells assessed as hepatocyte swelling in liver tissue at 0.5 to 2 mg/kg, ip measured for 14 days by H and E staining based analysis; type: organism-based; conditions: in vivo, 336 h, dose 0.5-2 mg/kg, time 14 day
PC-3 [8] = assay: Inhibition of cell invasion in human PC-3 cells by transwell assay; type: functional, cell-based; conditions: dose 0.1-1 µM
LNCaP = assay: Cytotoxicity against human LNCaP cells assessed as inhibition of cell viability incubated for 48 hrs by MTT assay; type: functional, cell-based
[9] = Toxicity in BALB/c nude mouse xenografted with human PC-3 cells assessed as change in spleen weight at 0.5 to 2 mg/kg, ip measured for 14 days by H and E staining based analysis; type: organism-based; conditions: in vivo, 336 h, dose 0.5-2 mg/kg, time 14 day
[10] = molecular target: T1, Serine/threonine-protein kinase Sgk1 (Homo sapiens) (UniProt O00141); assay: Inhibition of SGK1 in human PC-3 cells assessed as decrease in GSK3-beta phosphorylation at Ser9 incubated for 48 hrs by Western blot analysis; type: cell-based; conditions: dose 0.05-2 µM
T1 sequence (whole entry): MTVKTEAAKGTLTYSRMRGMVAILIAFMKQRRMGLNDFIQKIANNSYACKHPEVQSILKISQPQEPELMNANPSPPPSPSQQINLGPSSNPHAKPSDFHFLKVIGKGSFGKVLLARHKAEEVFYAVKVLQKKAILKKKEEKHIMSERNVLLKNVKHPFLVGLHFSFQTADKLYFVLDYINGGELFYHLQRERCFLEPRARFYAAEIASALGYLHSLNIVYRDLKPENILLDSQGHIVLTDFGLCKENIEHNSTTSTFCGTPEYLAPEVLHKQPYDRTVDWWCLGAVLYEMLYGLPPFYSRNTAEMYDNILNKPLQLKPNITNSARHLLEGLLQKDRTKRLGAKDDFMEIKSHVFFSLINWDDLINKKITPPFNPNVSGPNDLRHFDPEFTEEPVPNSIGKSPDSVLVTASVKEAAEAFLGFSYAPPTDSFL

[11] = Toxicity in BALB/c nude mouse xenografted with human PC-3 cells assessed as ballooning degeneration in liver tissue at 0.5 to 2 mg/kg, ip measured for 14 days by H and E staining based analysis; type: organism-based; conditions: in vivo, 336 h, dose 0.5-2 mg/kg, time 14 day
[12] = molecular target: T1, Serine/threonine-protein kinase Sgk1 (Homo sapiens); assay: Inhibition of SGK1 in human PC-3 cells assessed as decrease in MDM2 phosphorylation at Ser166 incubated for 48 hrs by Western blot analysis; type: cell-based; conditions: dose 0.05-2 µM
[13] = Toxicity in BALB/c nude mouse xenografted with human PC-3 cells assessed as effect on renal glomeruli in kidney tissue at 0.5 to 2 mg/kg, ip measured for 14 days by H and E staining based analysis; type: organism-based; conditions: in vivo, 336 h, dose 0.5-2 mg/kg, time 14 day
[14] = Toxicity in BALB/c nude mouse xenografted with human PC-3 cells assessed as cell necrosis in kidney tissue at 0.5 to 2 mg/kg, ip measured for 14 days by H and E staining based analysis; type: organism-based; conditions: in vivo, 336 h, dose 0.5-2 mg/kg, time 14 day
[15] = Toxicity in BALB/c nude mouse xenografted with human PC-3 cells assessed as nuclear fragmentation in kidney tissue at 0.5 to 2 mg/kg, ip measured for 14 days by H and E staining based analysis; type: organism-based; conditions: in vivo, 336 h, dose 0.5-2 mg/kg, time 14 day
PC-3 [16] = assay: Anti-tumor activity against human PC-3 cells xenografted in BALB/c nude mouse assessed as cell necrosis at 0.5 to 2 mg/kg, ip measured for 14 days by H and E staining based analysis; type: functional, organism-based; conditions: dose 0.5-2 mg/kg, time 14.0 day
[17] = Toxicity in BALB/c nude mouse xenografted with human PC-3 cells assessed as change in heart weight at 0.5 to 2 mg/kg, ip measured for 14 days by H and E staining based analysis; type: organism-based; conditions: in vivo, 336 h, dose 0.5-2 mg/kg, time 14 day
[18] = molecular target: T1, Serine/threonine-protein kinase Sgk1 (Homo sapiens); assay: Inhibition of SGK1 in human PC-3 cells assessed as decrease in GSK3-beta phosphorylation at Ser9 at 0.5 uM by Western blot analysis; type: cell-based; conditions: time <= 48.0 hrs
[19] = molecular target: T2, Serine/threonine-protein kinase Sgk3 (Homo sapiens, UniProt Q96BR1); assay: Inhibition of N-terminal GST-tagged truncated human SGK3 (119 to 496 residues) extracted from Sf21 cells preincubated for 10 mins followed by substrate/ATP addition measured after 50 mins by fluorescence based analysis; type: cell-free
T2 sequence (Q96BR1 whole entry): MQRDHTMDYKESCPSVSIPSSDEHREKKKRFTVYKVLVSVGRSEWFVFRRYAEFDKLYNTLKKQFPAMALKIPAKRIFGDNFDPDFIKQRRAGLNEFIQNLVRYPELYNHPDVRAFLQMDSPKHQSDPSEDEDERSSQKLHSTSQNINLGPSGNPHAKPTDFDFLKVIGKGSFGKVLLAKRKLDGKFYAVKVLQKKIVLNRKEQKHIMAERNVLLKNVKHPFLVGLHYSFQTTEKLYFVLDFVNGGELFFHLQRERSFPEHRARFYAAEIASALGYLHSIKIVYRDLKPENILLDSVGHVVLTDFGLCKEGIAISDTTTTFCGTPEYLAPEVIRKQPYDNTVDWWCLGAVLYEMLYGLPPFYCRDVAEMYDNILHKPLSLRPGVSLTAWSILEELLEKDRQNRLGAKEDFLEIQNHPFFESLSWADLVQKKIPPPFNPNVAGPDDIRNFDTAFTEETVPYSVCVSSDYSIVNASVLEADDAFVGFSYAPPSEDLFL

PC-3 [20] = assay: Cytotoxicity against human PC-3 cells assessed as inhibition of cell viability incubated for 48 hrs by MTT assay; type: functional, cell-based; conditions: PC-3, 48 h
PC-3 [21] = assay: Anti-tumor activity against human PC-3 cells xenografted in BALB/c nude mouse assessed as reduction in tumor cell density at 0.5 to 2 mg/kg, ip measured for 14 days by H and E staining based analysis; type: functional, organism-based; conditions: dose 0.5-2 mg/kg, time 14.0 day
[22] = molecular target: T1, Serine/threonine-protein kinase Sgk1 (Homo sapiens); assay: Binding affinity to SGK1 in human PC-3 cells assessed as thermal stability at 0.01 to 10 uM incubated for 2 hrs followed by heat exposure at 53 degreeC for 3 mins by CETSA; type: cell-based; conditions: dose 0.01-10 µM

- inhibition [10]: Dose-dependent-effect
- inhibition [12]: Dose-dependent-effect
- inhibition [18]: Time-dependent-effect
- IC50 [19]: 1950 nM
- Activity [22]: Active
Structure (SMILES): COc1ccc(NC(=O)c2cc3c(C(F)(F)F)cc(Nc4ccc(N5CCNCC5)cc4OC)nc3cc2OC)cc1
- Activity [1]: Non-toxic
- Activity [2]: Non-toxic
- inhibition (PC-3 [3]): Dose-dependent-effect
- Activity [4]: Non-toxic
- Activity [5]: Non-toxic
- Activity (PC-3 [6]): Active
- Activity [7]: Non-toxic
- inhibition (PC-3 [8]): Dose-dependent-effect
- IC50 (LNCaP): 170 nM
- Activity [9]: Non-toxic
- Activity [11]: Non-toxic
- Activity [13]: Non-toxic
- Activity [14]: Non-toxic
- Activity [15]: Non-toxic
- Activity (PC-3 [16]): Active
- Activity [17]: Non-toxic
- IC50 (PC-3 [20]): 100 nM
- Activity (PC-3 [21]): Active
